Results from the kinase profiling compilation of Christmann-Franck et al. (2016).

Key:
Experiment in all cases: radiometric filter-binding kinase assay
[1] = tested on: ROCK2 (rat); conditions: accession and sequence are those of the human protein
[2] = molecular target: CSNK2A1 (human) (UniProt P68400)
[3] = molecular target: PHKG1 (human) (UniProt Q16816)
[4] = molecular target: PRKCZ (human) (UniProt Q05513)
[5] = molecular target: CHEK2 (human) (UniProt O96017)
[6] = molecular target: STK11 CAB39 STRADA (human) (UniProt Q9Y376+Q7RTN6+Q15831)
[7] = molecular target: MELK (human) (UniProt Q14680)
[8] = molecular target: SRC (human) (UniProt P12931)
[9] = molecular target: PRKACA (human) (UniProt P17612)
[10] = molecular target: NTRK1 (human) (UniProt P04629)
[11] = molecular target: IKBKB (human) (UniProt O14920)
[12] = molecular target: MAPKAPK3 (human) (UniProt Q16644)
[13] = molecular target: DAPK1 (human) (UniProt P53355)
[14] = molecular target: INSRR (human) (UniProt P14616)
[15] = molecular target: MAPK13 (human) (UniProt O15264)
[16] = tested on: LCK (mouse); conditions: accession and sequence are those of the human protein
[17] = molecular target: MKNK2 (human) (UniProt Q9HBH9)
[18] = tested on: PRKAA1 or PRKAA2 (rat); conditions: accession and sequence are those of the human protein
[19] = molecular target: RPS6KA1 KD1 KD2 (human) (UniProt Q15418)
Sequence of RPS6KA1 KD1 KD2 (human) (Q15418 whole entry, looked up): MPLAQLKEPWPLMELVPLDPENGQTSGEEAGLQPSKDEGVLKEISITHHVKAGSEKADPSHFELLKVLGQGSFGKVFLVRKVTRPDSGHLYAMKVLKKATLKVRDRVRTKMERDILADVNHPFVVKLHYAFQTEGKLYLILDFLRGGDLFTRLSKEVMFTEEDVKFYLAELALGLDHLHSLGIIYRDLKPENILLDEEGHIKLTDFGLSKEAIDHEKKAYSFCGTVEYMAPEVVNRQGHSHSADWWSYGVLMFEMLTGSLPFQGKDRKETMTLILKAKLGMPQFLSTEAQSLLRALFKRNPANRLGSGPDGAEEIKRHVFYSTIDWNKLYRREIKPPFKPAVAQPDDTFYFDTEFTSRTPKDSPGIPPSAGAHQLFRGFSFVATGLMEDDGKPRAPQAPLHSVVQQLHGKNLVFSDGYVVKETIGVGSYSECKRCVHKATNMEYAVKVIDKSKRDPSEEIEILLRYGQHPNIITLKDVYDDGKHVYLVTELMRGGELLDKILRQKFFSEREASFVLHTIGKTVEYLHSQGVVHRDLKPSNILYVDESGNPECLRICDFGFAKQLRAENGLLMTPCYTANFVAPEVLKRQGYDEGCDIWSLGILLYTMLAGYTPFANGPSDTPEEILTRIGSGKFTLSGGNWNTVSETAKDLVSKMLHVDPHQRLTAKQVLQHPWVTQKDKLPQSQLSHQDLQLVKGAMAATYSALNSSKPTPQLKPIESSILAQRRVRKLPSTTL

[20] = molecular target: FGFR1 (human) (UniProt P11362)
Sequence of FGFR1 (human) (P11362 whole entry, looked up): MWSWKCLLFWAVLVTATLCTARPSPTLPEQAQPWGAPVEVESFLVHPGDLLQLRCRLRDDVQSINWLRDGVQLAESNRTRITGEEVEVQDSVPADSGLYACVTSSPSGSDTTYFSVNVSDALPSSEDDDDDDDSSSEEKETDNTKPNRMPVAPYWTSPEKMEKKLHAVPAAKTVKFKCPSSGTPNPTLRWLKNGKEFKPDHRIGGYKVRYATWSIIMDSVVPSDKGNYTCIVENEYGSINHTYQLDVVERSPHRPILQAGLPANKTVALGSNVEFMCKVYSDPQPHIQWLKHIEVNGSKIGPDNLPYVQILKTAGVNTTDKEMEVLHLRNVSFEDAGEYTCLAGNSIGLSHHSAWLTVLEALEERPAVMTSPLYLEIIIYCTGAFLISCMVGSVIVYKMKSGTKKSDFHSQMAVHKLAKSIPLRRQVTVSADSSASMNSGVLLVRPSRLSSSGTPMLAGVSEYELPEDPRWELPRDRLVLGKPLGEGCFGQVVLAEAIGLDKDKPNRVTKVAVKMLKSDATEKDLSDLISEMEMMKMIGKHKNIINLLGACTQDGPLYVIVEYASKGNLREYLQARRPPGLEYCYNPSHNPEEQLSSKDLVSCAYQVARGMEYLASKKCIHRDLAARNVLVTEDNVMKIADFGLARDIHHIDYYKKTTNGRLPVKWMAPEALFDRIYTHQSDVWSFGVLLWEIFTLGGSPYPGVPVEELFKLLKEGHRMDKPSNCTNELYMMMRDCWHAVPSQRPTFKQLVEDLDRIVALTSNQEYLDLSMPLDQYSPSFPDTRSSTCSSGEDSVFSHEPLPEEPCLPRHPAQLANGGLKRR

[21] = molecular target: AURKB (human) (UniProt Q96GD4)
Sequence of AURKB (human) (Q96GD4 whole entry, looked up): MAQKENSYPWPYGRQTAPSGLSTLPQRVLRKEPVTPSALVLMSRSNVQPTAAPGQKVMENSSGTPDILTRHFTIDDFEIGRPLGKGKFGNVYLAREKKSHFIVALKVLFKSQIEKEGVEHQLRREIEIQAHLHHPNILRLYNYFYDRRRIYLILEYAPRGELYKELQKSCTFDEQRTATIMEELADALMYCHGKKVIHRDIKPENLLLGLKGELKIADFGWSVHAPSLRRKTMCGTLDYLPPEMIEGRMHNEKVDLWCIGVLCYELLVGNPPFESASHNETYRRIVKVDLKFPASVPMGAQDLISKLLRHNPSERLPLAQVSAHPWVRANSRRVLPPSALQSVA

[22] = molecular target: TTK (human) (UniProt P33981)
[23] = molecular target: GSK3B (human) (UniProt P49841)
[24] = molecular target: CSK (human) (UniProt P41240)
[25] = molecular target: MKNK1 (human) (UniProt Q9BUB5)
[26] = molecular target: MAPK1 (human) (UniProt P28482)
[27] = molecular target: EPHB3 (human) (UniProt P54753)
[28] = molecular target: CDK2 CCNA2 (human) (UniProt P20248+P24941)
[29] = molecular target: MAP3K9 (human) (UniProt P80192)
Sequence of MAP3K9 (human) (P80192 whole entry, looked up): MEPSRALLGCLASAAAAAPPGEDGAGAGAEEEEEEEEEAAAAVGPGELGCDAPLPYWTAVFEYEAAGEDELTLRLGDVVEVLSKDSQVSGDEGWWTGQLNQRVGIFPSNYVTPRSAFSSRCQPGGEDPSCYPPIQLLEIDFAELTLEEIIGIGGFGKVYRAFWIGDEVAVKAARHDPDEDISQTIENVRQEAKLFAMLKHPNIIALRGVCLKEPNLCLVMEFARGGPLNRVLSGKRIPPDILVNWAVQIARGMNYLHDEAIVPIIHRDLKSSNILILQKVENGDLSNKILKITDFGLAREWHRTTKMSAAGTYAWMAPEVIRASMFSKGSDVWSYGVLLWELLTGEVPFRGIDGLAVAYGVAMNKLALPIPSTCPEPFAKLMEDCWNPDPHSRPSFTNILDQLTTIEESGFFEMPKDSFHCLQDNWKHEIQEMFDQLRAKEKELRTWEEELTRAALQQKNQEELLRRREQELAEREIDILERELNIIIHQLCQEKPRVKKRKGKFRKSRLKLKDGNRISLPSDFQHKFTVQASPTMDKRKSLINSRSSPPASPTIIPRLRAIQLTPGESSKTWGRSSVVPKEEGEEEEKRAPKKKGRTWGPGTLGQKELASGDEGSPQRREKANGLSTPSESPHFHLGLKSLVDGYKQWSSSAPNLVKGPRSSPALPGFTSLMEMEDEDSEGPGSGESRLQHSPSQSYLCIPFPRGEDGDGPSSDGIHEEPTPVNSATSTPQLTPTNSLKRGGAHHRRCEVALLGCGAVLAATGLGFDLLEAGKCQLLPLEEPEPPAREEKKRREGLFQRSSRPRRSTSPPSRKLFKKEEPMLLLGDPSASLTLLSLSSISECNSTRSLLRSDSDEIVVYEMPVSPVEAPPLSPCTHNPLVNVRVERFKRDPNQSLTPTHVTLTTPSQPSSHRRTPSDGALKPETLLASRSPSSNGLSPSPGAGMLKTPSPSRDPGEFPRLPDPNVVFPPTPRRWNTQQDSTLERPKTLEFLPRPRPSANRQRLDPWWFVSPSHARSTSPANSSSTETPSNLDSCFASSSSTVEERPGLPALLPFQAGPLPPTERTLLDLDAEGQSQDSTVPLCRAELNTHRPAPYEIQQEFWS

[30] = molecular target: MINK1 (human) (UniProt Q8N4C8)
[31] = molecular target: MAP2K2 (human) (UniProt P36507); conditions: compound 0.1 µM
[32] = molecular target: ERBB4 (human) (UniProt Q15303)
[33] = molecular target: MARK4 (human) (UniProt Q96L34)
[34] = molecular target: EEF2K (human) (UniProt O00418)
[35] = molecular target: MYLK (human) (UniProt Q15746)
Sequence of MYLK (human) (Q15746 whole entry, looked up): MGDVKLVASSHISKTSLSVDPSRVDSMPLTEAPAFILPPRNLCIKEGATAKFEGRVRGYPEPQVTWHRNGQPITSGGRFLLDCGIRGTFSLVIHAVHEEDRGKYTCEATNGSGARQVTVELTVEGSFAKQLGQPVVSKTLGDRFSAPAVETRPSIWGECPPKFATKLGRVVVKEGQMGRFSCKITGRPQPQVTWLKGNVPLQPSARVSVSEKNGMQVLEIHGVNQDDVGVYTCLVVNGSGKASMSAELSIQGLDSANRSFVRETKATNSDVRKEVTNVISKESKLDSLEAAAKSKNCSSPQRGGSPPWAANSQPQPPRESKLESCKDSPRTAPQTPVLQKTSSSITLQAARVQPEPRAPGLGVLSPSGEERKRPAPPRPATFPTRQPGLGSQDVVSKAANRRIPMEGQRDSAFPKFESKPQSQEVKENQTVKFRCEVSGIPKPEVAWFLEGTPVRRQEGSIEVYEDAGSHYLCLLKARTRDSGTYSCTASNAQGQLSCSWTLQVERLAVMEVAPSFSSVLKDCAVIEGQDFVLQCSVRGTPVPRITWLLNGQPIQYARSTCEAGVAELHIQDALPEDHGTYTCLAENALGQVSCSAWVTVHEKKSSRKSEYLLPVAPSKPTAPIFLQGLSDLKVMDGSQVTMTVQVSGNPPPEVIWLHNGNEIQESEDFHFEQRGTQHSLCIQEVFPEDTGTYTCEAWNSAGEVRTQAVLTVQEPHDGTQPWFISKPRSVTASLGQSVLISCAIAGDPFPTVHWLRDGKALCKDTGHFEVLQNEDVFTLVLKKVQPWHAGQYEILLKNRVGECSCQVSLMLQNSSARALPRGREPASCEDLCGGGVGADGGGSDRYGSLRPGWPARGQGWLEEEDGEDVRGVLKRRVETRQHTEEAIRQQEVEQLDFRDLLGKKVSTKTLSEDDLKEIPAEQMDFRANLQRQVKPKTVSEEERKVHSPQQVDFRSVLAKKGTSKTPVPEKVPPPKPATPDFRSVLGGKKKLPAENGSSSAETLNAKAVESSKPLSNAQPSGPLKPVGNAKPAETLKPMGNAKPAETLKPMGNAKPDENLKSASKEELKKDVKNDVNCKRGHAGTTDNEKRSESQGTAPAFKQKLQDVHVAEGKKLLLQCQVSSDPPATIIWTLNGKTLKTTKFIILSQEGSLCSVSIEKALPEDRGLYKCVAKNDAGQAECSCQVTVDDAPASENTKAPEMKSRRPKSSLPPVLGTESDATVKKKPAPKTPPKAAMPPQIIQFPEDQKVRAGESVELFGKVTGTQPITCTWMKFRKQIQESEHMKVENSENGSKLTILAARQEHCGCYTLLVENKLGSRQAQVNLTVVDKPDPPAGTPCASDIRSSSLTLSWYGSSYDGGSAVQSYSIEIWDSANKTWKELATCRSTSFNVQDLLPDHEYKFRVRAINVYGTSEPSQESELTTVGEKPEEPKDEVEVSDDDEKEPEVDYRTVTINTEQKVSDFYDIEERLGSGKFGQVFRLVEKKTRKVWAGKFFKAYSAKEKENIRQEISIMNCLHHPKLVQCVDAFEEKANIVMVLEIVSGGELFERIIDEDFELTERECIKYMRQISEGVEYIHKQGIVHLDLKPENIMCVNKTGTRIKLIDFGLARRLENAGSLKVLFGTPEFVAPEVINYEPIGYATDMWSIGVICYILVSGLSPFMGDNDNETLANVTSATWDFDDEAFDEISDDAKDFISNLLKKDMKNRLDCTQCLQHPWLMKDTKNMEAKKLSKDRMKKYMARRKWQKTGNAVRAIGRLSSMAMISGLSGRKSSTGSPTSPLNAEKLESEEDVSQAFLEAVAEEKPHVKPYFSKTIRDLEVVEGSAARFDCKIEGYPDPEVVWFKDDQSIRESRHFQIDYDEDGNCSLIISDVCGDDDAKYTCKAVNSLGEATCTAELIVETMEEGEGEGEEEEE

With CCn1c(-c2nonc2N)nc2cncc(CNC3CCNCC3)c21 the residual activity ([1]; compound 0.1 µM) was 31%, the residual activity ([1]; compound 1.0 µM) was 23% and the residual activity ([1]; compound 10.0 µM) was 17%. The residual activity ([2]; compound 0.1 µM) was 71%, the residual activity ([2]; compound 1.0 µM) was 74% and the residual activity ([2]; compound 10.0 µM) was 86%. The residual activity ([3]; compound 0.1 µM) was 101%, the residual activity ([3]; compound 1.0 µM) was 101% and the residual activity ([3]; compound 10.0 µM) was 75%. For the same compound, the residual activity ([4]; compound 0.1 µM) was 94%, the residual activity ([4]; compound 1.0 µM) was 71% and the residual activity ([4]; compound 10.0 µM) was 25%. It also gave a residual activity ([5]; compound 0.1 µM) of 94%, a residual activity ([5]; compound 1.0 µM) of 89% and a residual activity ([5]; compound 10.0 µM) of 69%. For the same compound, the residual activity ([6]; compound 0.1 µM) was 108%, the residual activity ([6]; compound 10.0 µM) was 57% and the residual activity ([7]; compound 0.1 µM) was 71%. It also gave a residual activity ([7]; compound 1.0 µM) of 40%, a residual activity ([7]; compound 10.0 µM) of 26% and a residual activity ([8]; compound 0.1 µM) of 110%. The residual activity ([8]; compound 1.0 µM) was 120%, the residual activity ([8]; compound 10.0 µM) was 102% and the residual activity ([9]; compound 0.1 µM) was 79%. It also gave a residual activity ([9]; compound 1.0 µM) of 33%, a residual activity ([9]; compound 10.0 µM) of 8% and a residual activity ([10]; compound 0.1 µM) of 104%. The residual activity ([10]; compound 1.0 µM) was 99%, the residual activity ([10]; compound 10.0 µM) was 97% and the residual activity ([11]; compound 0.1 µM) was 98%. It also gave a residual activity ([11]; compound 1.0 µM) of 97%, a residual activity ([11]; compound 10.0 µM) of 100% and a residual activity ([12]; compound 0.1 µM) of 98%. The residual activity ([12]; compound 1.0 µM) was 101%, the residual activity ([12]; compound 10.0 µM) was 97% and the residual activity ([13]; compound 0.1 µM) was 111%. The residual activity ([13]; compound 1.0 µM) was 84%, the residual activity ([13]; compound 10.0 µM) was 35% and the residual activity ([14]; compound 0.1 µM) was 71%. The residual activity ([14]; compound 1.0 µM) was 49%, the residual activity ([14]; compound 10.0 µM) was 21% and the residual activity ([15]; compound 0.1 µM) was 100%. The residual activity ([15]; compound 1.0 µM) was 99%, the residual activity ([15]; compound 10.0 µM) was 88% and the residual activity ([16]; compound 0.1 µM) was 102%. The residual activity ([16]; compound 1.0 µM) was 99%, the residual activity ([16]; compound 10.0 µM) was 94% and the residual activity ([17]; compound 0.1 µM) was 110%. For the same compound, the residual activity ([17]; compound 1.0 µM) was 116%, the residual activity ([17]; compound 10.0 µM) was 77% and the residual activity ([18]; compound 0.1 µM) was 95%. It also gave a residual activity ([18]; compound 1.0 µM) of 82%, a residual activity ([18]; compound 10.0 µM) of 29% and a residual activity ([19]; compound 0.1 µM) of 33%. The residual activity ([19]; compound 1.0 µM) was 15%, the residual activity ([19]; compound 10.0 µM) was 9% and the residual activity ([20]; compound 0.1 µM) was 101%. The residual activity ([20]; compound 1.0 µM) was 115%, the residual activity ([20]; compound 10.0 µM) was 121% and the residual activity ([21]; compound 0.1 µM) was 85%. The residual activity ([21]; compound 1.0 µM) was 76%, the residual activity ([21]; compound 10.0 µM) was 71% and the residual activity ([22]; compound 0.1 µM) was 83%. It also gave a residual activity ([22]; compound 1.0 µM) of 84%, a residual activity ([22]; compound 10.0 µM) of 65% and a residual activity ([23]; compound 0.1 µM) of 87%. For the same compound, the residual activity ([23]; compound 1.0 µM) was 66%, the residual activity ([23]; compound 10.0 µM) was 25% and the residual activity ([24]; compound 0.1 µM) was 89%. For the same compound, the residual activity ([24]; compound 1.0 µM) was 95%, the residual activity ([24]; compound 10.0 µM) was 98% and the residual activity ([25]; compound 0.1 µM) was 91%. The residual activity ([25]; compound 1.0 µM) was 100%, the residual activity ([25]; compound 10.0 µM) was 90% and the residual activity ([26]; compound 0.1 µM) was 113%. The residual activity ([26]; compound 1.0 µM) was 117%, the residual activity ([26]; compound 10.0 µM) was 115% and the residual activity ([27]; compound 0.1 µM) was 81%. For the same compound, the residual activity ([27]; compound 1.0 µM) was 99%, the residual activity ([27]; compound 10.0 µM) was 83% and the residual activity ([28]; compound 0.1 µM) was 83%. It also gave a residual activity ([28]; compound 1.0 µM) of 81%, a residual activity ([28]; compound 10.0 µM) of 56% and a residual activity ([29]; compound 0.1 µM) of 105%. The residual activity ([29]; compound 1.0 µM) was 104%, the residual activity ([29]; compound 10.0 µM) was 99% and the residual activity ([30]; compound 0.1 µM) was 107%. For the same compound, the residual activity ([30]; compound 1.0 µM) was 96%, the residual activity ([30]; compound 10.0 µM) was 72% and the residual activity [31] was 98%. For the same compound, the residual activity ([32]; compound 0.1 µM) was 112%, the residual activity ([32]; compound 1.0 µM) was 104% and the residual activity ([33]; compound 0.1 µM) was 91%. For the same compound, the residual activity ([33]; compound 1.0 µM) was 103%, the residual activity ([33]; compound 10.0 µM) was 81% and the residual activity ([34]; compound 0.1 µM) was 118%. It also gave a residual activity ([34]; compound 10.0 µM) of 117%, a residual activity ([35]; compound 0.1 µM) of 104% and a residual activity ([35]; compound 1.0 µM) of 110%. It also gave a residual activity ([35]; compound 10.0 µM) of 70%.
